± gives the expanded uncertainty stated by the source.

The conditions of the data set: Crystal, Transpiration method.

Consider `O=c1cc[nH]c(=O)[nH]1` [2,4(1H,3H)-pyrimidinedione], for which the vapor or sublimation pressure (usually the equilibrium pressure above the liquid or solid) reads like this: (424 K) 0.00022 ± 2e-05 kPa; (434.1 K) 0.00051 ± 4e-05 kPa; (440 K) 0.00086 ± 7e-05 kPa; (446 K) 0.00135 ± 0.0001 kPa; (451.9 K) 0.00212 ± 0.00015 kPa; (457.7 K) 0.00317 ± 0.0002 kPa. Besides, the “vapor or sublimation pressure” value runs as follows: (462.6 K) 0.0047 ± 0.0003 kPa; (467.4 K) 0.00673 ± 0.00046 kPa; (472.4 K) 0.00905 ± 0.0006 kPa.
On to `Cc1c[nH]c(=O)[nH]c1=O` [thymine], for which the “vapor or sublimation pressure” value is, setting by setting: (426.4 K) 0.00061 ± 5e-05 kPa; (430.5 K) 0.00086 ± 7e-05 kPa; (436.2 K) 0.00134 ± 0.0001 kPa; (440.5 K) 0.00183 ± 0.00012 kPa; (447.6 K) 0.00314 ± 0.0002 kPa; (450.8 K) 0.00397 ± 0.00025 kPa. The “vapor or sublimation pressure” value reads like this: (456.5 K) 0.00601 ± 0.00043 kPa; (460.6 K) 0.00813 ± 0.00056 kPa; (464.8 K) 0.01106 ± 0.00073 kPa; (468.9 K) 0.01464 ± 0.00095 kPa; (472.3 K) 0.01767 ± 0.0011 kPa.

For the origin of these results see the NIST ThermoML archive (doi:10.1016/j.jct.2015.03.015).
